# Test results: patent publication US20100267561A1, “HERBICIDAL PYRIDAZINONE DERIVATIVES” (priority 2007, published 2010)
# Assays:
# Assay in all cases: Test B pre-/postemergence plant response
# Type in all cases: in vivo
# [1] = test system: Italian ryegrass (Lolium multiflorum)
# Outline: (§1)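 Preemergence and postemergence (plants 2-18 cm, 1- to 4-leaf stage) applications used test chemicals in a non-phytotoxic solvent with surfactant. Plants were held in a greenhouse 13 to 15 days, then rated visually against controls on a 0-100 scale (0 no effect, 100 complete control).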
# [2] = test system: common ragweed (Ambrosia elation)
# Outline: as §1
# [3] = test system: cocklebur (Xanthium strumarium)
# Outline: as §1
# [4] = test system: corn (Zea mays)
# Outline: as §1
# [5] = test system: catchweed bedstraw (Galium aparine); conditions: Preemergence, scale 0 to 100
# Outline: as §1
# [6] = test system: lambsquarters (Chenopodium album); conditions: Postemergence
# Outline: as §1
# [7] = test system: wild oat (Avena fatua)
# Outline: as §1
# [8] = test system: kochia (Kochia scoparia)
# Outline: as §1
# [9] = test system: eastern black (E.B.) nightshade (Solanum ptycanthum); conditions: Preemergence
# Outline: as §1
# [10] = test system: green foxtail (Setaria viridis)
# Outline: as §1
# [11] = test system: yellow nutsedge (Cyperus esculentus)
# Outline: as §1
# [12] = test system: surinam grass (Brachiaria decumbens)
# Outline: as §1
# [13] = test system: morningglory (Ipomoea coccinea)
# Outline: as §1
# [14] = Postemergence, 31 g ai/ha, scale 0 to 100, 0 no effect, 100 complete control
# [15] = Postemergence, 62 g ai/ha, scale 0 to 100
# [16] = Postemergence, 125 g ai/ha, scale 0 to 100
# [17] = Postemergence, 250 g ai/ha, scale 0 to 100
# [18] = Preemergence, 31 g ai/ha, 0 to 100 scale, 0 no effect, 100 complete control
# [19] = Preemergence, 62 g ai/ha, scale 0 to 100
# [20] = Preemergence, 125 g ai/ha, scale 0 to 100
# [21] = Preemergence, 250 g ai/ha, scale 0 to 100
substance,measurement,setting,value
4-[3-(4-chlorophenyl)-5-methyl-1H-pyrazol-3-yl]-5-hydroxy-2-methyl-3(2H)-pyridazinone [Compound 3],"Plant response rating, Ryegrass, Italian",[1]; [14],95
same,"Plant response rating, Ryegrass, Italian",[1]; [15],100
same,"Plant response rating, Ryegrass, Italian",[1]; [16],100
same,"Plant response rating, Ryegrass, Italian",[1]; [17],100
same,"Plant response rating, Ryegrass, Italian",[1]; [18],98
same,"Plant response rating, Ryegrass, Italian",[1]; [19],100
same,"Plant response rating, Ryegrass, Italian",[1]; [20],100
same,"Plant response rating, Ryegrass, Italian",[1]; [21],100
same,"Plant response rating, Ragweed",[2]; [15],0
same,"Plant response rating, Ragweed",[2]; [16],0
same,"Plant response rating, Ragweed",[2]; [17],50
same,"Plant response rating, Ragweed",[2]; [18],0
same,"Plant response rating, Ragweed",[2]; [20],0
same,"Plant response rating, Ragweed",[2]; [21],0
same,"Plant response rating, Cocklebur",[3]; [14],0
same,"Plant response rating, Cocklebur",[3]; [15],0
same,"Plant response rating, Cocklebur",[3]; [16],0
same,"Plant response rating, Cocklebur",[3]; [17],0
same,"Plant response rating, Cocklebur",[3]; [18],0
same,"Plant response rating, Cocklebur",[3]; [19],0
same,"Plant response rating, Cocklebur",[3]; [21],0
same,"Plant response rating, Corn",[4]; [14],100
same,"Plant response rating, Corn",[4]; [15],100
same,"Plant response rating, Corn",[4]; [16],100
same,"Plant response rating, Corn",[4]; [17],100
same,"Plant response rating, Corn",[4]; [18],95
same,"Plant response rating, Corn",[4]; [19],95
same,"Plant response rating, Corn",[4]; [20],95
same,"Plant response rating, Corn",[4]; [21],98
same,"Plant response rating, Galium",[5]; 62 g ai/ha,85
same,"Plant response rating, Galium",[5]; 125 g ai/ha,85
same,"Plant response rating, Galium",[5]; 250 g ai/ha,85
same,"Plant response rating, Lambsquarters","[6]; 31 g ai/ha, scale 0 to 100, 0 no effect, 100 complete control",0
same,"Plant response rating, Lambsquarters","[6]; 62 g ai/ha, scale 0 to 100",0
same,"Plant response rating, Lambsquarters","[6]; 125 g ai/ha, scale 0 to 100",15
same,"Plant response rating, Lambsquarters","[6]; 250 g ai/ha, scale 0 to 100",20
same,"Plant response rating, Oat, Wild",[7]; [14],90
same,"Plant response rating, Oat, Wild",[7]; [15],95
same,"Plant response rating, Oat, Wild",[7]; [16],100
same,"Plant response rating, Oat, Wild",[7]; [17],100
same,"Plant response rating, Oat, Wild",[7]; [18],60
same,"Plant response rating, Oat, Wild",[7]; [19],70
same,"Plant response rating, Oat, Wild",[7]; [20],80
same,"Plant response rating, Oat, Wild",[7]; [21],95
same,"Plant response rating, Kochia",[8]; [14],0
same,"Plant response rating, Kochia",[8]; [15],0
same,"Plant response rating, Kochia",[8]; [16],60
same,"Plant response rating, Kochia",[8]; [17],70
same,"Plant response rating, Kochia",[8]; [18],0
same,"Plant response rating, Kochia",[8]; [20],30
same,"Plant response rating, Kochia",[8]; [21],30
same,"Plant response rating, Nightshade, E. B.","[9]; 31 g ai/ha, 0 to 100 scale, 0 no effect, 100 complete control",90
same,"Plant response rating, Nightshade, E. B.","[9]; 62 g ai/ha, scale 0 to 100",100
same,"Plant response rating, Nightshade, E. B.","[9]; 125 g ai/ha, scale 0 to 100",100
same,"Plant response rating, Nightshade, E. B.","[9]; 250 g ai/ha, scale 0 to 100",100
same,"Plant response rating, Foxtail, Green",[10]; [14],90
same,"Plant response rating, Foxtail, Green",[10]; [15],100
same,"Plant response rating, Foxtail, Green",[10]; [16],100
same,"Plant response rating, Foxtail, Green",[10]; [17],100
same,"Plant response rating, Foxtail, Green",[10]; [18],100
same,"Plant response rating, Foxtail, Green",[10]; [19],100
same,"Plant response rating, Foxtail, Green",[10]; [20],100
same,"Plant response rating, Foxtail, Green",[10]; [21],100
same,"Plant response rating, Nutsedge, Yellow",[11]; [14],0
same,"Plant response rating, Nutsedge, Yellow",[11]; [15],0
same,"Plant response rating, Nutsedge, Yellow",[11]; [16],0
same,"Plant response rating, Nutsedge, Yellow",[11]; [17],0
same,"Plant response rating, Nutsedge, Yellow",[11]; [18],0
same,"Plant response rating, Nutsedge, Yellow",[11]; [19],0
same,"Plant response rating, Nutsedge, Yellow",[11]; [20],0
same,"Plant response rating, Nutsedge, Yellow",[11]; [21],0
same,"Plant response rating, Surinam Grass",[12]; [14],100
same,"Plant response rating, Surinam Grass",[12]; [15],100
same,"Plant response rating, Surinam Grass",[12]; [16],100
same,"Plant response rating, Surinam Grass",[12]; [17],100
same,"Plant response rating, Surinam Grass",[12]; [18],100
same,"Plant response rating, Surinam Grass",[12]; [19],100
same,"Plant response rating, Surinam Grass",[12]; [20],100
same,"Plant response rating, Surinam Grass",[12]; [21],100
same,"Plant response rating, Morningglory",[13]; [14],0
same,"Plant response rating, Morningglory",[13]; [15],0
same,"Plant response rating, Morningglory",[13]; [16],0
same,"Plant response rating, Morningglory",[13]; [17],0
same,"Plant response rating, Morningglory",[13]; [18],0
same,"Plant response rating, Morningglory",[13]; [19],0
same,"Plant response rating, Morningglory",[13]; [20],0
same,"Plant response rating, Morningglory",[13]; [21],0
